Columns and labels:
[1] = system: KRas-mediated phosphorylation of ERK in MKN1 cells; experiment: Inhibition of KRas-mediated phosphorylation of ERK (Cisbio HTRF pERK), MKN1 cells; type: cell-based; conditions: Homo sapiens, MKN-1
Outline: (§1)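 Day 1 seeding: 6,000 cells per well, RPMI/10% FBS, left overnight at 37° C. with 5% CO2. Plates then stood covered for 4 h at room temperature prior to HTRF detection of pERK.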

[2] = system: KRas-mediated phosphorylation of ERK in PSN1 cells; experiment: Inhibition of KRas-mediated phosphorylation of ERK (Cisbio HTRF pERK), PSN1 cells; type: cell-based; conditions: Homo sapiens
Outline: as §1

[3] = system: KRas-mediated phosphorylation of ERK in A549 cells; experiment: Inhibition of KRas-mediated phosphorylation of ERK (Cisbio HTRF pERK), A549 cells; type: cell-based; conditions: Homo sapiens, HTRF pERK
Outline: (§2)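 Cells were seeded at 6,000 per well and treated for 3 hrs with compound in a 10-dose, 3-fold series from 10 uM (0.8% final DMSO), with 0.2 uM Trametinib as Min control. Lysates made at 4° C over 40 mins were incubated 2 hrs at room temperature with d2- and Cryptate-labelled antibodies, then read by HTRF.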

[4] = system: KRas-mediated phosphorylation of ERK in AsPC-1 cells; experiment: Inhibition of KRas-mediated phosphorylation of ERK (Cisbio HTRF pERK), AsPC-1 cells; type: cell-based; conditions: Homo sapiens, ASPC1, AsPC-1 cells; HTRF pERK
Outline: (§3)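 H358, H727, H460 and AsPC-1 cells seeded at 6,000/well, treated 3 hrs with 10-dose 3-fold dilutions from 10 uM (0.8% DMSO); 0.2 uM trametinib as min control. Lysed 40 min at 4° C; lysate incubated 2 hrs at room temperature with d2/cryptate antibodies, HTRF read.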

[5] = system: KRas-mediated phosphorylation of ERK in H727 cells; experiment: Inhibition of KRas-mediated phosphorylation of ERK (Cisbio HTRF pERK), H727 cells; type: cell-based; conditions: Homo sapiens, NCI-H727, H727 cells; HTRF pERK
Outline: as §3

[6] = system: KRas-mediated phosphorylation of ERK in H460 cells; experiment: Inhibition of KRas-mediated phosphorylation of ERK (Cisbio HTRF pERK), H460 cells; type: cell-based; conditions: Homo sapiens, NCI-H460, HTRF pERK
Outline: as §3

[7] = target: T1, KRas^WT (Homo sapiens, UniProt P01116); experiment: KRas binding assay (TR-FRET tracer displacement), KRas WT; conditions: TR-FRET tracer displacement, KRas WT
T1 construct: Biotinylated KRas (corresponding to amino acids 1-169, produced at Accelegan Inc.); biotin (biotinylated); purchased Accelegan Inc
T1 sequence (P01116 1-169 isoform P01116-2): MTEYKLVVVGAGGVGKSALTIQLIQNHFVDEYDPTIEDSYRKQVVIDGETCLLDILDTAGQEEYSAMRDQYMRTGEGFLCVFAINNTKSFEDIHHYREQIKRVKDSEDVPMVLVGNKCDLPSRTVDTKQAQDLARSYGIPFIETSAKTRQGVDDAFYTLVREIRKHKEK

[8] = target: T2, KRas^G12V (Homo sapiens, UniProt P01116, G12V); experiment: KRas binding assay (TR-FRET tracer displacement), KRas G12V
T2 construct: Biotinylated KRas (corresponding to amino acids 1-169, produced at Accelegan Inc.); biotin (biotinylated); purchased Accelegan Inc
T2 sequence (P01116 1-169 isoform P01116-2 G12V): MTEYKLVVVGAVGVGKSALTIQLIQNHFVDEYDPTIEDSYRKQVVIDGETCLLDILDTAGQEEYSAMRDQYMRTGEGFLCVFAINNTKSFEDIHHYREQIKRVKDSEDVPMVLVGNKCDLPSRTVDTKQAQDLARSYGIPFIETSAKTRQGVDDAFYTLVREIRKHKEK

[9] = target: T3, KRas^G12S (Homo sapiens, UniProt P01116, G12S); experiment: KRas binding assay (TR-FRET tracer displacement), KRas G12S; conditions: TR-FRET tracer displacement, KRas G12S
T3 construct: Biotinylated KRas (corresponding to amino acids 1-169, produced at Accelegan Inc.); biotin (biotinylated); purchased Accelegan Inc
T3 sequence (P01116 1-169 isoform P01116-2 G12S): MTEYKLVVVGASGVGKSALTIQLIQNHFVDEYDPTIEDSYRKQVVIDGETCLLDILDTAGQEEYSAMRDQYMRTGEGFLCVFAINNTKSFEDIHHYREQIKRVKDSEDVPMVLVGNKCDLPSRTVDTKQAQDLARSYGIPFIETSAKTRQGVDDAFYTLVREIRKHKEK

[10] = target: T4, KRas^G12D (Homo sapiens, UniProt P01116, G12D); experiment: KRas binding assay (TR-FRET tracer displacement), KRas G12D
T4 construct: Biotinylated KRas (corresponding to amino acids 1-169, produced at Accelegan Inc.); biotin (biotinylated); purchased Accelegan Inc
T4 sequence (P01116 1-169 isoform P01116-2 G12D): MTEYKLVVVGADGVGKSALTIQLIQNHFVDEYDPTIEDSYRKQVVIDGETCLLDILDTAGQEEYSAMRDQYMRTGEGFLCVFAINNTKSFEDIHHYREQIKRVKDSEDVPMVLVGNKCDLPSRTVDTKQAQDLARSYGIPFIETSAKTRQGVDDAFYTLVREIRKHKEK

[11] = target: T5, KRas^G12C (Homo sapiens, UniProt P01116, G12C); experiment: KRas binding assay (TR-FRET tracer displacement), KRas G12C; conditions: TR-FRET tracer displacement, KRas G12C
T5 construct: Biotinylated KRas (corresponding to amino acids 1-169, produced at Accelegan Inc.); biotin (biotinylated); purchased Accelegan Inc
T5 sequence (P01116 1-169 isoform P01116-2 G12C): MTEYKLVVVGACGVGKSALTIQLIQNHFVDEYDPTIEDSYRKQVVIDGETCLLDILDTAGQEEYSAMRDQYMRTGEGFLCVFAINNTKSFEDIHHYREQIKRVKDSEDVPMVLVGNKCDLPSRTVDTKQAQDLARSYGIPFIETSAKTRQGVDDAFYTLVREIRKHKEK

[12] = system: KRas-mediated phosphorylation of ERK in HCT116 cells; experiment: Inhibition of KRas-mediated phosphorylation of ERK (Cisbio HTRF pERK), HCT116 cells; type: cell-based; conditions: Homo sapiens, HCT-116, HTRF pERK
Outline: as §2

[13] = system: KRas-mediated phosphorylation of ERK in H358 cells; experiment: Inhibition of KRas-mediated phosphorylation of ERK (Cisbio HTRF pERK), H358 cells; type: cell-based; conditions: Homo sapiens, NCI-H358, HTRF pERK
Outline: as §3

Compound | IC50 [1] [nM] | IC50 [2] [nM] | IC50 [3] [nM] | IC50 [4] [nM] | IC50 [5] [nM] | IC50 [6] [nM] | IC50 [7] [nM] | IC50 [8] [nM] | IC50 [9] [nM] | IC50 [10] [nM] | IC50 [11] [nM] | IC50 [12] [nM] | IC50 [13] [nM]
C=C1CN2CC(=C)CC2(COc2nc(N3CCC[C@@](C)(O)C3)c3cnc(-c4cc(O)cc5ccc(F)c(CC)c45)c(F)c3n2)C1 [Example 799, (R)-1-(2-((2,6-dimethylenetetrahydro-1H-pyrrolizin-7a(5H)-yl)methoxy)-7-(8-ethyl-7-fluoro-3-hydroxynaphthalen-1-yl)-8-fluoropyrido[4,3-d]pyrimidin-4-yl)-3-methylpiperidin-3-ol] | 0.9 | 988 | 9 | 7 | 20 | 8 | < 2 | < 2 | < 2 | < 2 | < 2 | 30 | 4
CCc1c(F)ccc2cc(O)cc(-c3ncc4c(N5C[C@@H]6C[C@H](C5)[C@H](O)C6)nc(OCC56CC(F)CN5CC(F)C6)nc4c3F)c12 (stereo partly drawn) [Example 923, (1R,5R,6R)-3-(2-((2,6-difluorotetrahydro-1H-pyrrolizin-7a(5H)-yl)methoxy)-7-(8-ethyl-7-fluoro-3-hydroxynaphthalen-1-yl)-8-fluoropyrido[4,3-d]pyrimidin-4-yl)-3-azabicyclo[3.2.1]octan-6-ol] | 9 | > 10000 |  | 365 | 125 |  | 8 | 4 | 5 | 18 | 7 |  | 
CCc1c(F)ccc2cc(O)cc(-c3ncc4c(N5C[C@@H]6C[C@H](C5)[C@H](O)C6)nc(OC[C@@]56CCCN5C[C@@H](F)C6)nc4c3F)c12 [Example 927, (1R,5R,6R)-3-(7-(8-ethyl-7-fluoro-3-hydroxynaphthalen-1-yl)-8-fluoro-2-(((2S,7aS)-2-fluorotetrahydro-1H-pyrrolizin-7a(5H)-yl)methoxy)pyrido[4,3-d]pyrimidin-4-yl)-3-azabicycle[3.2.1]octan-6-ol] | 17 | > 10000 |  | 468 | 202 |  | 6 | 4 | 5 | 13 | 7 |  | 
CCc1c(F)ccc2cc(O)cc(-c3ncc4c(N5C[C@@H]6C[C@H](C5)[C@H](O)C6)nc(OC[C@@]56CCCN5C[C@H](OC)C6)nc4c3F)c12 [Example 926, (1R,5R,6R)-3-(7-(8-ethyl-7-fluoro-3-hydroxynaphthalen-1-yl)-8-fluoro-2-(((2R,7aS)-2-methoxytetrahydro-1H-pyrrolizin-7a(5H)-yl)methoxy)pyrido[4,3-d]pyrimidin-4-yl)-3-azabicyclo[3.2.1]octan-6-ol] | 0.7 | 3000 |  | 66 | 29 |  | < 2 | < 2 | < 2 | 2 | < 2 |  | 
C=C1CN2CCCC2(COc2nc(N3CCCC(C)(O)C3)c3cnc(-c4cc(O)cc5ccc(F)c(CC)c45)c(F)c3n2)C1 (stereo in doubt) [Example 797, (3R)-1-(7-(8-ethyl-7-fluoro-3-hydroxynaphthalen-1-yl)-8-fluoro-2-((2-methylenetetrahydro-1H-pyrrolizin-7a(5H)-yl)methoxy)pyrido[4,3-d]pyrimidin-4-yl)-3-methylpiperidin-3-ol] |  | 296 | 3 | 1 | 4 | 3 | < 2 | < 2 | < 2 | < 2 | < 2 | 10 | 1
CCc1c(F)ccc2cc(O)cc(-c3ncc4c(N5C[C@@H]6C[C@H](C5)[C@H](O)C6)nc(OCC56CCCN5CC(F)(F)C6)nc4c3F)c12 (stereo partly drawn) [Example 924, (1R,5R,6R)-3-(2-((2,2-difluorotetrahydro-1H-pyrrolizin-7a(5H)-yl)methoxy)-7-(8-ethyl-7-fluoro-3-hydroxynaphthalen-1-yl)-8-fluoropyrido[4,3-d]pyrimidin-4-yl)-3-azabicyclo[3.2.1]octan-6-ol] | 14 | > 10000 |  | 262 | 118 |  | 7 | 4 | 5 | 14 | 7 |  | 
CCc1c(F)ccc2cc(O)cc(-c3ncc4c(N5C[C@@H]6C[C@H](C5)[C@H](O)C6)nc(OCC56CCCN5C(C)CC6)nc4c3F)c12 (stereo partly drawn) [Example 928, (1R,5R,6R)-3-(7-(8-ethyl-7-fluoro-3-hydroxynaphthalen-1-yl)-8-fluoro-2-((3-methyltetrahydro-1H-pyrrolizin-7a(5H)-yl)methoxy)pyrido[4,3-d]pyrimidin-4-yl)-3-azabicyclo[3.2.1]octan-6-ol] | 3 | 2840 |  | 74 | 33 |  | < 2 | < 2 | < 2 | 2 | < 2 |  | 
C[C@@H]1C[C@@H]1c1c(Cl)cc(O)cc1-c1ncc2c(N3CCC[C@]4(C3)NC(=O)NC4=O)nc(OC[C@@]34CCCN3C[C@H](F)C4)nc2c1F [Example 932, (R)-7-(7-(3-chloro-5-hydroxy-2-((1S,2R)-2-methylcyclopropyl)phenyl)-8-fluoro-2-(((2R,7aS)-2-fluorotetrahydro-1H-pyrrolizin-7a(5H)-yl)methoxy)pyrido[4,3-d]pyrimidin-4-yl)-1,3,7-triazaspiro[4.5]decane-2,4-dione] | 3 |  | 69 | 139 | 225 | 33 | < 2 | < 2 | < 2 | < 2 | < 2 | 130 | 23
CCc1c(F)ccc2cc(O)cc(-c3ncc4c(N5C[C@@H]6C[C@H](C5)[C@H](O)C6)nc(OC[C@@]56CCCN5C[C@@H](OC)C6)nc4c3F)c12 [Example 925, (1R,5R,6R)-3-(7-(8-ethyl-7-fluoro-3-hydroxynaphthalen-1-yl)-8-fluoro-2-(((2S,7aS)-2-methoxytetrahydro-1H-pyrrolizin-7a(5H)-yl)methoxy)pyrido[4,3-d]pyrimidin-4-yl)-3-azabicyclo[3.2.1]octan-6-ol] | 9 | > 10000 |  | 826 | 302 |  | 3 | 2 | 3 | 6 | 4 |  | 
C=C1CN2CCCC2(COc2nc(N3CCCC4(CNS(=O)(=O)N4)C3)c3cnc(-c4cc(O)cc5ccc(F)c(CC)c45)c(F)c3n2)C1 (stereo not shown) [Example 940, 7-(7-(8-ethyl-7-fluoro-3-hydroxynaphthalen-1-yl)-8-fluoro-2-((2-methylenetetrahydro-1H-pyrrolizin-7a(5H)-yl)methoxy)pyrido[4,3-d]pyrimidin-4-yl)-2-thia-1,3,7-triazaspiro[4.5]decane 2,2-dioxide] | 2 |  | 33 | 42 | 72 | 17 | < 2 | < 2 | < 2 | < 2 | < 2 | 43 | 10
C=C1CN2CC(=C)CC2(COc2nc(N3C[C@@H]4C[C@H](C3)[C@H](O)C4)c3cnc(-c4cc(O)cc5ccc(F)c(CC)c45)c(F)c3n2)C1 [Example 796, (1R,5R,6R)-3-(2-((2,6-dimethylenetetrahydro-1H-pyrrolizin-7a(5H)-yl)methoxy)-7-(8-ethyl-7-fluoro-3-hydroxynaphthalen-1-yl)-8-fluoropyrido[4,3-d]pyrimidin-4-yl)-3-azabicyclo[3.2.1]octan-6-ol] | 2 |  | 7 | 21 | 12 | 8 | < 2 | < 2 | < 2 | < 2 | < 2 | 37 | 5

Reference: patent US20260015350A1, “AZAQUINAZOLINE PAN-KRAS INHIBITORS” (Mirati Therapeutics, Inc., priority 2022, published 2026)
